Data from patent US11999739B2, “Antimicrobials methods of making and using the same” (BIOVERSYS AG, priority 2016, dated 2024).

Experiments:
[1] = test system: Staphylococcus aureus (S. aureus) 11540 strain; assay: Standard microdilution MIC assay, S. aureus; assay type: cell-based
Summary of the method: (§1)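 MICs obtained by CLSI-standard microdilution, quality-controlled with reference strains in parallel. Values reported as + or − relative to a 16 micrograms/mL cutoff.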

[2] = test system: Escherichia coli strain ATCC25922; assay: Standard microdilution MIC assay, E. coli; assay type: cell-based
Summary of the method: as §1

| Structure (SMILES) | MIC [1] [mg/L] | MIC [2] [mg/L] |
| --- | --- | --- |
| C[C@H](N)CCCc1cc(Cl)c(F)c(-c2cc3cn(-c4ccc(CN[C@@H](CN)CCNC(=N)CF)cc4)c(=O)nc3[nH]2)c1 [Compound 20] | ≤ 16 | ≤ 16 |
| C=C[C@@H](CCNC(C)=N)N[C@@H](C)c1ccc(-n2cc3cc(-c4cc(CCC[C@@H](N)CO)cc(Cl)c4F)[nH]c3nc2=O)cc1F [Compound 168] | ≤ 16 | ≤ 16 |
| CSC[C@@H](CCNC(=N)CF)NCc1ccc(-n2cc3cc(-c4cc(CCC[C@H](C)N)cc(Cl)c4F)[nH]c3nc2=O)cc1 [Compound 88] | ≤ 16 | ≤ 16 |
| CC(=N)NCC[C@@H]1CCC[C@@H](c2ccc(-n3cc4cc(-c5cc(CCC[C@@H](N)C6CC6)cc(OC(F)(F)F)c5F)[nH]c4nc3=O)cc2F)N1 [Compound 208] | ≤ 16 | ≤ 16 |
| C=C[C@@H](CCNC(=N)CF)NCc1ccc(-n2cc3cc(-c4cc(CCC[C@@H](N)C5CC5)cc(Cl)c4F)[nH]c3nc2=O)cc1 [Compound 89] | ≤ 16 | ≤ 16 |
| C=C[C@@H](CCNC(C)=N)NCc1ccc(-n2cc3cc(-c4cc(CCC[C@@H](N)CF)cc(Cl)c4F)[nH]c3nc2=O)cc1 [Compound 103] | ≤ 16 | ≤ 16 |
| COC[C@H](N)CCCc1cc(-c2cc3cn(-c4ccc(CN[C@H](CCNC(C)=N)C5CC5)cc4)c(=O)nc3[nH]2)cc(C(F)(F)F)c1 [Compound 222] | ≤ 16 | ≤ 16 |
| C=CC(CCNC(=N)CCOCC)NCc1ccc(-n2cc3cc(-c4cc(CCC[C@H](C)N)cc(Cl)c4F)[nH]c3nc2=O)cc1 (stereo partly drawn) [Compound 10] | ≤ 16 | ≤ 16 |
| C=C[C@H](N)CCCc1cc(Cl)c(F)c(-c2cc3cn(-c4ccc([C@@H]5CCC[C@@H](CCNC(C)=N)N5CCCF)c(F)c4)c(=O)nc3[nH]2)c1 [Compound 355] | ≤ 16 | ≤ 16 |
| C=C[C@H](N)CCCc1cc(Cl)c(F)c(-c2cc3cn(-c4ccc([C@@H]5CCC[C@@H](CCNC(C)=N)N5CCCF)c(SC)c4)c(=O)nc3[nH]2)c1 [Compound 344] | ≤ 16 | ≤ 16 |
| COc1cc(-n2cc3cc(-c4cc(CCC[C@@H](N)C5CC5)cc(OC(F)(F)F)c4F)[nH]c3nc2=O)ccc1[C@@H]1CCC[C@@H](CCNC(C)=N)N1 [Compound 234] | ≤ 16 | ≤ 16 |
| CC(=N)NCC[C@@H]1CCC[C@@H](c2ccc(-n3cc4cc(-c5cc(CCC[C@@H](N)C6CC6)cc(C(F)(F)F)c5)[nH]c4nc3=O)cc2F)N1 [Compound 211] | ≤ 16 | ≤ 16 |
| C=C[C@H](NCCCNC(C)=N)c1ccc(-n2cc3cc(-c4cc(CCC[C@@H](N)CF)cc(Cl)c4F)[nH]c3nc2=O)cc1 [Compound 179] | ≤ 16 | ≤ 16 |
| COC[C@H](N)CCCc1cc(-c2cc3cn(-c4ccc([C@@H]5CCC[C@@H](CCNC(C)=N)N5)c(OC)c4)c(=O)nc3[nH]2)cc(C(F)(F)F)c1 [Compound 210] | ≤ 16 | ≤ 16 |
| C=C[C@H](NCCCNC(C)=N)c1ccc(-n2cc3cc(-c4cc(CCC[C@@H](N)COC)cc(OC(F)(F)F)c4F)[nH]c3nc2=O)cc1 [Compound 268] | ≤ 16 | ≤ 16 |
| CC(=N)NCC[C@H](CO)NCc1ccc(-n2cc3cc(-c4cc(CCC(F)(F)CN)cc(Cl)c4F)[nH]c3nc2=O)cc1 [Compound 91] | ≤ 16 | ≤ 16 |
| N=C(CF)NCC[C@H](CO)NCc1ccc(-n2cc3cc(-c4cc(CCC[C@@H](N)CO)cc(Cl)c4F)[nH]c3nc2=O)cc1 [Compound 84] | ≤ 16 | ≤ 16 |
| CSc1cc(-n2cc3cc(-c4cc(CCC[C@@H](N)CF)cc(C(F)(F)F)c4)[nH]c3nc2=O)ccc1[C@@H]1CCC[C@@H](CCNC(C)=N)N1 [Compound 203] | ≤ 16 | ≤ 16 |
| C=C[C@@H](CCNC(=N)CCO)NCc1ccc(-n2cc3cc(-c4cc(CCC[C@H](C)N)cc(Cl)c4F)[nH]c3nc2=O)cc1 [Compound 15] | ≤ 16 | ≤ 16 |
| CSc1cc(-n2cc3cc(-c4cc(CCC[C@H](C)N)cc(C(F)(F)F)c4)[nH]c3nc2=O)cc(F)c1[C@@H]1CCC[C@@H](CCNC(C)=N)N1CCCF [Compound 329] | ≤ 16 | ≤ 16 |
| C=C[C@H](NCCCNC(C)=N)c1ccc(-n2cc3cc(-c4cc(CCCC(C)(C)N)cc(Cl)c4F)[nH]c3nc2=O)cc1 [Compound 267] | ≤ 16 | ≤ 16 |
| C=CC(CCNC(=N)CF)NCc1ccc(-n2cc3cc(-c4cc(CCC(C)(C)CN)cc(Cl)c4F)[nH]c3nc2=O)cc1 (stereo not drawn) [Compound 27] | ≤ 16 | ≤ 16 |
| CSc1cc(-n2cc3cc(-c4cc(CCC[C@@H](N)C5CC5)cc(C(F)(F)F)c4)[nH]c3nc2=O)cc(F)c1[C@@H]1CCC[C@@H](CCNC(C)=N)N1CCCF [Compound 337] | ≤ 16 | ≤ 16 |

Second part, the molecule after the results:

| MIC [1] [mg/L] | MIC [2] [mg/L] | Structure (SMILES) |
| --- | --- | --- |
| ≤ 16 | ≤ 16 | COC[C@H](N)CCCc1cc(OC(F)(F)F)c(F)c(-c2cc3cn(-c4ccc([C@@H]5CCC[C@@H](CCNC(C)=N)N5)cc4)c(=O)nc3[nH]2)c1 [Compound 195] |
| ≤ 16 | ≤ 16 | COC[C@H](N)CCCc1cc(OC(F)(F)F)c(F)c(-c2cc3cn(-c4ccc([C@@H]5CCC[C@@H](CCNC(C)=N)N5)nc4)c(=O)nc3[nH]2)c1 [Compound 347] |
| ≤ 16 | ≤ 16 | C=CC(CCNC(C)=N)NCc1ccc(-n2cc3cc(-c4cc(CCC[C@@H](N)CO)cc(Cl)c4F)[nH]c3nc2=O)cc1 (stereo partly drawn) [Compound 8] |
| ≤ 16 | ≤ 16 | CC(=N)NCC[C@@H]1CCC[C@@H](c2ccc(-n3cc4cc(-c5cc(CCC[C@H](C)N)cc(Cl)c5F)[nH]c4nc3=O)cc2)N1CC(C)C [Compound 369] |
| ≤ 16 | ≤ 16 | C=C[C@H](N)CCCc1cc(Cl)c(F)c(-c2cc3cn(-c4cc(F)c([C@@H]5CCC[C@@H](CCNC(C)=N)N5)c(F)c4)c(=O)nc3[nH]2)c1 [Compound 246] |
| ≤ 16 | ≤ 16 | C=C[C@H](N)CCCc1cc(Cl)c(F)c(-c2cc3cn(-c4ccc(CN[C@H](CCNC(C)=N)C5CC5)cc4)c(=O)nc3[nH]2)c1 [Compound 220] |
| ≤ 16 | ≤ 16 | CC(=N)NCC[C@@H]1CCC[C@@H](c2ccc(-n3cc4cc(-c5cc(CCC[C@H](C)N)cc(Cl)c5F)[nH]c4nc3=O)cn2)N1 [Compound 192] |
| > 16 | > 16 | N=C(CF)NCC[C@@H]1COC[C@@H](c2ccc(-n3cc4cc(-c5cc(CCC[C@@H](N)C(F)(F)F)cc(Cl)c5F)[nH]c4nc3=O)cc2)N1 [Compound 67] |
| ≤ 16 | ≤ 16 | CC(=N)NCC[C@@H]1COC[C@@H](c2ccc(-n3cc4cc(-c5cc(CCC[C@@H](N)C6CC6)cc(Cl)c5F)[nH]c4nc3=O)cc2)N1 [Compound 98] |
| ≤ 16 | ≤ 16 | C=C[C@@H](CCNC(C)=N)OCc1ccc(-n2cc3cc(-c4cc(CCC[C@H](C)N)cc(Cl)c4F)[nH]c3nc2=O)cc1 [Compound 3] |
| ≤ 16 | ≤ 16 | COc1cc(-n2cc3cc(-c4cc(CCC[C@@H](N)CF)cc(C(F)(F)F)c4F)[nH]c3nc2=O)ccc1[C@@H]1CCC[C@@H](CCNC(C)=N)N1 [Compound 237] |
| ≤ 16 | ≤ 16 | CC(=N)NCC[C@@H]1COC[C@@H](c2ccc(-n3cc4cc(-c5cc(CCC[C@H](C)N)cc(Cl)c5F)[nH]c4nc3=O)cc2)N1 [Compound 47] |
| ≤ 16 | ≤ 16 | COC[C@H](N)CCCc1cc(Cl)c(F)c(-c2cc3cn(-c4ccc([C@@H]5CCC[C@@H](CCNC(C)=N)N5)c(F)c4)c(=O)nc3[nH]2)c1 [Compound 171] |
| ≤ 16 | ≤ 16 | C=C[C@H](N)CCCc1cc(Cl)c(F)c(-c2cc3cn(-c4ccc([C@@H]5COC[C@@H](CCNC(C)=N)N5)cc4)c(=O)nc3[nH]2)c1 [Compound 80] |
| ≤ 16 | ≤ 16 | CSc1cc(-n2cc3cc(-c4cc(CCC[C@@H]5COCCN5)cc(Cl)c4F)[nH]c3nc2=O)ccc1[C@@H]1CCC[C@@H](CCNC(C)=N)N1 [Compound 260] |
| ≤ 16 | ≤ 16 | CC(=N)NCCCNC1(c2ccc(-n3cc4cc(-c5cc(CCC[C@@H](N)CO)cc(Cl)c5F)[nH]c4nc3=O)cc2)CC1 [Compound 138] |
| ≤ 16 | ≤ 16 | CC(=N)NCCCNC1(c2ccc(-n3cc4cc(-c5cc(CCC[C@@H](N)C6CC6)cc(Cl)c5F)[nH]c4nc3=O)cc2)CC1 [Compound 143] |
| ≤ 16 | ≤ 16 | CC(=N)NCC[C@@H]1CCC[C@@H](c2ccc(-n3cc4cc(-c5cc(CCC[C@@H]6COCCN6)cc(Cl)c5F)[nH]c4nc3=O)cc2)N1 [Compound 226] |
| ≤ 16 | ≤ 16 | CC(=N)NCC[C@@H]1CCC[C@@H](c2ccc(-n3cc4cc(-c5cc(CCC[C@@H](N)CF)cc(C(F)(F)F)c5F)[nH]c4nc3=O)cc2)N1 [Compound 193] |
| ≤ 16 | ≤ 16 | CC(=N)NCC[C@@H]1CCC[C@@H](c2ccc(-n3cc4cc(-c5cc(CCC[C@H](C)NC(C)=N)cc(Cl)c5F)[nH]c4nc3=O)cc2)N1 [Compound 29] |
| ≤ 16 | ≤ 16 | CC(=N)NCC[C@H](CO)NCc1ccc(-n2cc3cc(-c4cc(CCC[C@@H](N)C5CC5)cc(Cl)c4F)[nH]c3nc2=O)cc1 [Compound 79] |
| ≤ 16 | ≤ 16 | COC[C@H](N)CCCc1cc(Cl)c(F)c(-c2cc3cn(-c4ccc([C@@H]5CCC[C@@H](CCNC(C)=N)N5)cc4)c(=O)nc3[nH]2)c1 [Compound 160] |
| ≤ 16 | ≤ 16 | C[C@H](N)CCCc1cc(Cl)c(F)c(-c2cc3cn(-c4ccc([C@H]5CNC[C@@H](CCNC(=N)CF)N5)cc4)c(=O)nc3[nH]2)c1 [Compound 46] |
| ≤ 16 | ≤ 16 | C=C[C@H](N)CCCc1cc(Cl)c(F)c(-c2cc3cn(-c4ccc([C@@H]5CCC[C@@H](CCNC(C)=N)N5)c(S(C)(=O)=O)c4)c(=O)nc3[nH]2)c1 [Compound 272] |
| ≤ 16 | ≤ 16 | C=C[C@@H](N)CCCc1cc(Cl)c(F)c(-c2cc3cn(-c4ccc([C@@H]5CCC[C@@H](CCNC(C)=N)N5C)cc4)c(=O)nc3[nH]2)c1 [Compound 124] |
